Results published in ChEMBL document CHEMBL5291721, “A preclinical secondary pharmacology resource illuminates target-adverse drug reaction associations of marketed drugs” (Nat Commun, 2023).

Columns and labels:
[1] = target: T1, Alpha-2B adrenergic receptor (Homo sapiens, UniProt P18089)
T1 sequence (P18089 whole entry): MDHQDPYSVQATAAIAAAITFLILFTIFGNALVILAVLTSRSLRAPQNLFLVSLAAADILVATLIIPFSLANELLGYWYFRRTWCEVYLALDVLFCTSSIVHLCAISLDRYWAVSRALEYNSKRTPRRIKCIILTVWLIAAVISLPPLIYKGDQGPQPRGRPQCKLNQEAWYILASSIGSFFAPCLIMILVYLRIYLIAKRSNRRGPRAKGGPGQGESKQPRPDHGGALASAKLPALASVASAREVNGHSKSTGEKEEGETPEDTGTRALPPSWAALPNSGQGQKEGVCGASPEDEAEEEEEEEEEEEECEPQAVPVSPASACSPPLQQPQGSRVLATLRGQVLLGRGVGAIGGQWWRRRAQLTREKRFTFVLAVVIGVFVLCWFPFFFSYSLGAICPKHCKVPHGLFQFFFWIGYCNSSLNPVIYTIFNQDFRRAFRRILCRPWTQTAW

[2] = target: T2, Alpha-1A adrenergic receptor (Homo sapiens, UniProt P35348)
T2 sequence (P35348 whole entry): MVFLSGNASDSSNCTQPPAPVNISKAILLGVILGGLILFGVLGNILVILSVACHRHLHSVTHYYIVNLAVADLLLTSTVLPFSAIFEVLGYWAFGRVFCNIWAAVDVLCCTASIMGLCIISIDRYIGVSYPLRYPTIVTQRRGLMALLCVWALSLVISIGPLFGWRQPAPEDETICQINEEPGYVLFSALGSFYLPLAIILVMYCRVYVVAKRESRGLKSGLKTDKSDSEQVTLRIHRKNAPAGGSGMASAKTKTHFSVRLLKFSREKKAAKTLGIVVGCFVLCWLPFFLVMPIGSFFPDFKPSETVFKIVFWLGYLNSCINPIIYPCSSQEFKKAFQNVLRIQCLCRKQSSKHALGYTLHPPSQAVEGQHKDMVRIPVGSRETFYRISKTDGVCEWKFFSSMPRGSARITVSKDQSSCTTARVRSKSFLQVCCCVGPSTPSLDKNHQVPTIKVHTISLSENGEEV

Cannabinoid receptor 1 [3] = target: T3, Cannabinoid receptor 1 (Homo sapiens, UniProt P21554)
T3 sequence (P21554 whole entry): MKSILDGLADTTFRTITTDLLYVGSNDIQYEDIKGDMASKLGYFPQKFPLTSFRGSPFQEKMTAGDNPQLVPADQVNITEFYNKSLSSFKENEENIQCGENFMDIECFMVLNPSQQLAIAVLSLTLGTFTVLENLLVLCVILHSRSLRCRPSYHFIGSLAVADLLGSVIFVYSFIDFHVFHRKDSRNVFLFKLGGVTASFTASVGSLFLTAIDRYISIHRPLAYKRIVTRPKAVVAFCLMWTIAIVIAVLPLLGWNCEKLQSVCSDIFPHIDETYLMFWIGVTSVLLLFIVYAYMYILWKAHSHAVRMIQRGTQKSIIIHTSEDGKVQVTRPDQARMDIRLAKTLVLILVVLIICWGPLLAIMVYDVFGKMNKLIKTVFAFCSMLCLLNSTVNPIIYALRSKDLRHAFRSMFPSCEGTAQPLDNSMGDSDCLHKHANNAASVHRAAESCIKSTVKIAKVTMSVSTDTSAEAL

Estrogen receptor = target: T4, Estrogen receptor (Homo sapiens, UniProt P03372)
T4 sequence (P03372 whole entry): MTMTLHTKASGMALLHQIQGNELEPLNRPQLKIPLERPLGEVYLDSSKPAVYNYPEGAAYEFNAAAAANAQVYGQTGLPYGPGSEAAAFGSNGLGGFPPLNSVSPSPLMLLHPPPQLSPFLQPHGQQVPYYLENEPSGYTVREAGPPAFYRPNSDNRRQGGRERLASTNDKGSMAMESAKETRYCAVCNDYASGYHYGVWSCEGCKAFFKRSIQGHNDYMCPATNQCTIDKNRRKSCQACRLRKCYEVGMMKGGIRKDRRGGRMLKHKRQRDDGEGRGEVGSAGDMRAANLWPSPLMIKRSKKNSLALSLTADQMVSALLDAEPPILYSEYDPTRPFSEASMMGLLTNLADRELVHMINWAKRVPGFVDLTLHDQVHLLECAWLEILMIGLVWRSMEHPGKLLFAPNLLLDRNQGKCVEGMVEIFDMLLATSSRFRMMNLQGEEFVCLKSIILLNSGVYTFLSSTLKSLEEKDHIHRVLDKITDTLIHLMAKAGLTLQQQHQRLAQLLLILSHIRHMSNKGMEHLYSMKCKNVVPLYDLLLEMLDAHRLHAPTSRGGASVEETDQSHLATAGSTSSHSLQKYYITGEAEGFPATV

Cannabinoid receptor 1 [4] = target: T3, Cannabinoid receptor 1; type: functional, cell-based
[5] = target: T5, 5-hydroxytryptamine receptor 1A (Homo sapiens, UniProt P08908); type: functional, cell-based
T5 sequence (P08908 whole entry): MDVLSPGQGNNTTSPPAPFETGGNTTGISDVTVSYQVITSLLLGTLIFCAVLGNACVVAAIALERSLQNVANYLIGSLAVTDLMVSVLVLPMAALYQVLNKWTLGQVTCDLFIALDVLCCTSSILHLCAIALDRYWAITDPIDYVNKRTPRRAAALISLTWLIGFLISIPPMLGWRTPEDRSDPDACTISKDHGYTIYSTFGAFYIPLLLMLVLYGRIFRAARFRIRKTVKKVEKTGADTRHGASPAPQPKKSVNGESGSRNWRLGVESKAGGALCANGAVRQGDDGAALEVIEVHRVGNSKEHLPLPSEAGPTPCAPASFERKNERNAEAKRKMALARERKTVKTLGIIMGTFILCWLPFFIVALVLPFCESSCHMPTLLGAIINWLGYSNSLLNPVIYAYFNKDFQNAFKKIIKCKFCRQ

Histamine H1 receptor = Histamine H1 receptor (Homo sapiens, UniProt P35367)
Sequence of Histamine H1 receptor (P35367 whole entry): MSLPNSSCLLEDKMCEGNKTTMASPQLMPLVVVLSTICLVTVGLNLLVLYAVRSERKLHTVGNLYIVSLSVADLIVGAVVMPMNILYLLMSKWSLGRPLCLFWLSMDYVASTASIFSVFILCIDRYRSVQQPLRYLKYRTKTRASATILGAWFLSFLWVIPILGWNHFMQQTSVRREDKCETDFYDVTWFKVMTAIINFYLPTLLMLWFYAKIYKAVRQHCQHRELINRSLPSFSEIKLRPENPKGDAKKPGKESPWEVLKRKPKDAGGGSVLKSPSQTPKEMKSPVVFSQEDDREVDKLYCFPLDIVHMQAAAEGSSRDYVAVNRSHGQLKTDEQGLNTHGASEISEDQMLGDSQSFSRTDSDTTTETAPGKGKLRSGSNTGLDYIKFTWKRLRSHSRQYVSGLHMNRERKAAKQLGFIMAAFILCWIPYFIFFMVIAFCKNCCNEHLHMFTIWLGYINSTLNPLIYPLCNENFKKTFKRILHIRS

[6] = target: Beta-2 adrenergic receptor (Homo sapiens, UniProt P07550); type: functional, cell-based
Sequence of Beta-2 adrenergic receptor (P07550 whole entry): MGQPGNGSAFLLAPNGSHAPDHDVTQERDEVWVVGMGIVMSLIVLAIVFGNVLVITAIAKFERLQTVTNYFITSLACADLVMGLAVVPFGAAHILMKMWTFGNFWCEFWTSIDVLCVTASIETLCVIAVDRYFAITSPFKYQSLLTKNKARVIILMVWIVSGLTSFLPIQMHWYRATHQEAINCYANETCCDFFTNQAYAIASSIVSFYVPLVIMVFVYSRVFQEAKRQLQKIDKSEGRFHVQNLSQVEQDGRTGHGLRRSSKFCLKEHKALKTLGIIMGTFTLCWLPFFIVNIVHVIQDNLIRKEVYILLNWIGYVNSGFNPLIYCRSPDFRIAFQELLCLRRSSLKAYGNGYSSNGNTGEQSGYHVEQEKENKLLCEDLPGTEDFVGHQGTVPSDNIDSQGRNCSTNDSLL

Mu-type opioid receptor = Mu-type opioid receptor (Homo sapiens, UniProt P35372); assay: biochemical; type: functional
Sequence of Mu-type opioid receptor (P35372 whole entry): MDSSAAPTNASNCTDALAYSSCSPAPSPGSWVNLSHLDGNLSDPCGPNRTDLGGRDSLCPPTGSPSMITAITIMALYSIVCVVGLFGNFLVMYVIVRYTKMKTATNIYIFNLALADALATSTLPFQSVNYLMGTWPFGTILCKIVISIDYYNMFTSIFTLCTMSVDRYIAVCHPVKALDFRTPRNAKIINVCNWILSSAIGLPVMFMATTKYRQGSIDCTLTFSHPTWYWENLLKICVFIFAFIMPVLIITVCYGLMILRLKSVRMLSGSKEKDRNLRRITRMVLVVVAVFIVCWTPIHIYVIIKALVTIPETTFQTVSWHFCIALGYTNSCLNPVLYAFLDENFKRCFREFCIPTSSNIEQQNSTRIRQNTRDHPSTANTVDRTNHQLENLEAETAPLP

[7] = target: T2, Alpha-1A adrenergic receptor; type: functional, cell-based
Melanocortin receptor 4 = Melanocortin receptor 4 (Homo sapiens, UniProt P32245)
Sequence of Melanocortin receptor 4 (P32245 whole entry): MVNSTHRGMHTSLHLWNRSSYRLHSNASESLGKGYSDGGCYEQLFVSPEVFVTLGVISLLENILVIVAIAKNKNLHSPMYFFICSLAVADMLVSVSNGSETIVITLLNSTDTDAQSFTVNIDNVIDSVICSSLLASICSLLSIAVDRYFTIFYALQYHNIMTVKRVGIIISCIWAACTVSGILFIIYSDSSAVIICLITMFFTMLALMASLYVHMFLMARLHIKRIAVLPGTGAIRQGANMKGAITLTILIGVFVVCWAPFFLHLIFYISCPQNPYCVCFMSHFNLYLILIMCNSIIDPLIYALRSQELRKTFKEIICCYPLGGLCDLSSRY

Cannabinoid receptor 1 [8] = target: T3, Cannabinoid receptor 1; type: functional, cell-based; remark: listed apart in the source
[9] = target: T6, Muscarinic acetylcholine receptor M1 (Homo sapiens, UniProt P11229); type: functional
T6 sequence (P11229 whole entry): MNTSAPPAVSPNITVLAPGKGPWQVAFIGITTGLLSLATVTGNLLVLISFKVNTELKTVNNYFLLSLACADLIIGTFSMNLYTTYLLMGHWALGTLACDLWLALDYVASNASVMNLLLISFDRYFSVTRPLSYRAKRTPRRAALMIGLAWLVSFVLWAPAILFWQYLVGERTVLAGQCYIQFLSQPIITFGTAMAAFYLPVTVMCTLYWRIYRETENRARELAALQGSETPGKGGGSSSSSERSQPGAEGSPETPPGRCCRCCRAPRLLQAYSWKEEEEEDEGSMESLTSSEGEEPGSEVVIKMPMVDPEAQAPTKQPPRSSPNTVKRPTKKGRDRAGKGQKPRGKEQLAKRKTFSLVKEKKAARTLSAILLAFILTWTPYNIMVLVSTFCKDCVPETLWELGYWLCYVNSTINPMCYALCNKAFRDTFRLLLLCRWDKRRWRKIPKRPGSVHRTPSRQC
Further: assay procedure not described here.

Row | SMILES | AC50 [1] | AC50 [2] | AC50 (Cannabinoid receptor 1 [3]) | AC50 (Estrogen receptor) | AC50 (Cannabinoid receptor 1 [4]) | AC50 [5] | AC50 (Histamine H1 receptor) | AC50 [6] | AC50 (Mu-type opioid receptor) | AC50 [7] | AC50 (Melanocortin receptor 4) | AC50 (Cannabinoid receptor 1 [8]) | AC50 [9]
1 | CC(=O)c1ccc(S(=O)(=O)NC(=O)NC2CCCCC2)cc1 [ACETOHEXAMIDE] | > 10 µM | > 10 µM | > 10 µM | > 10 µM | > 30 µM | > 10 µM | > 10 µM | > 30 µM | > 30 µM | > 30 µM | > 10 µM | > 30 µM | > 10 µM
2 | CCCCOc1ccc(C(=O)CCN2CCCCC2)cc1 [DYCLONINE] | > 10 µM | 9.66 µM | > 10 µM | > 30 µM | > 30 µM | > 10 µM | 8.5 µM | > 30 µM | – | > 30 µM | > 30 µM | > 30 µM | > 10 µM
3 | CCc1nc(N)nc(N)c1-c1ccc(Cl)cc1 [PYRIMETHAMINE] | > 10 µM | 4 µM | > 10 µM | > 10 µM | > 30 µM | > 10 µM | > 30 µM | > 30 µM | > 30 µM | > 30 µM | > 10 µM | > 30 µM | > 30 µM
